# Measurements as given in paper PMC10222646 (Microorganisms, 2023).
# How the values were obtained:
# [1] = system: P. falciparum transmission to Anopheles gambiae mosquitoes; experiment: Transmission-blocking standard membrane feeding assay (SMFA), oocysts in mosquito midguts; format: in vivo, Plasmodium falciparum NF54; settings: for Mean oocyst number per midgut: control 2.6; for Infect(%) percentage of infected mosquitoes: control 60
# [2] = system: HepG2
# [3] = system: THP-1
# [4] = system: human cell lines (HepG2, HEK293, Caco-2, THP-1, macrophage)
# [5] = system: asexual-stage P. falciparum; experiment: Antimalarial activity on asexual-stage P. falciparum in human blood (parasitemia, Giemsa smears); format: cell-based, Plasmodium falciparum NF54; settings: day 4, 0.5% starting parasitemia, 2% hematocrit; read-out: EC50 for inhibition of the asexual-stage P. falciparum (parasitemia rates)
# Protocol: 3–5-day cultured P. falciparum-infected red blood cells (iRBCs) were mixed with fresh human red blood cells (RBCs) (AB+ type) in complete RPMI 1640 to prepare cultures with 0.5% parasitemia and 2% hematocrit. AST was dissolved in dimethyl sulfoxide (DMSO). Then, 5 μL DMSO with AST at concentrations of 0, 0.5, 1, 2, 4, and 8 mM were added to the 0.5 mL iRBCs in a 48-well plate, yielding final concentrations of 5, 10, 20, 40, and 80 µM, respectively. The plate was incubated in a candle jar at 37 °C. Approximately 48 h later, the medium was replaced with fresh medium containing the same concentration of AST. Parasitemia was recorded via microscopic evaluation of Giemsa-stained blood smears on day 4 post-incubation.
# [6] = system: Anopheles gambiae mosquitoes; experiment: Mosquito mortality observed in SMFA (insecticidal activity); settings: AST in blood meal
# [7] = biological target: T1, human GS-II (hGS-II) (Homo sapiens, UniProt P15104); experiment: Glutamine synthetase assay, human GS-II (Glutamine/Glutamate-GLO); format: biochemical; settings: 1 µM AST, 30 min, Figure 2b
# T1 construct: purchased BioVision Inc., Milpitas, CA, USA
# Protocol: The activity and inhibition profiles of purified MBP-fused PfGS-I or human GS-II (hGS-II) (BioVision Inc., Milpitas, CA, USA) in the presence or absence of AST were estimated from glutamine production using Glutamine/Glutamate-GLO^TM Assay Kit (Promega, Madison, WI, USA). The assay mixture (50 mM imidazole-HCl buffer (pH 7.0), 7.6 mM ATP, 50 mM magnesium chloride, 50 mM ammonium chloride) with or without the indicated concentration of GS enzyme was preincubated in the presence or absence of the indicated concentrations of AST for 15 min at room temperature. The reaction was initiated through the addition of L-glutamate at 0.1 mM, the final concentration. The reaction mixtures were incubated at 37 °C with shaking at 300 rpm for the indicated time. The reactions were terminated by chilling the reaction mixture in ice water and filtered with 30 kDa Amicon Ultra centrifugal filters at 4 °C. Glutamate concentrations in the filtered samples were determined using a Glutamine/Glutamate-GLO^TM Assay as instructed in the kit’s manual, from which glutamine concentrations were estimated by subtracting the glutamate concentrations from the initial concentrations (0.1 mM). The EC50 (half maximal effective concentration) of AST for PfGS-I was calculated using Sigma Plot (Systat Software, Inc., Sun Jose, CA, USA).
# [8] = biological target: T2, P. falciparum GS-I (PfGS-I) (Plasmodium falciparum, UniProt W7JM41); experiment: Glutamine synthetase assay, purified MBP-fused PfGS-I (Glutamine/Glutamate-GLO); format: biochemical, Plasmodium falciparum NF54
# T2 sequence (W7JM41 1-544): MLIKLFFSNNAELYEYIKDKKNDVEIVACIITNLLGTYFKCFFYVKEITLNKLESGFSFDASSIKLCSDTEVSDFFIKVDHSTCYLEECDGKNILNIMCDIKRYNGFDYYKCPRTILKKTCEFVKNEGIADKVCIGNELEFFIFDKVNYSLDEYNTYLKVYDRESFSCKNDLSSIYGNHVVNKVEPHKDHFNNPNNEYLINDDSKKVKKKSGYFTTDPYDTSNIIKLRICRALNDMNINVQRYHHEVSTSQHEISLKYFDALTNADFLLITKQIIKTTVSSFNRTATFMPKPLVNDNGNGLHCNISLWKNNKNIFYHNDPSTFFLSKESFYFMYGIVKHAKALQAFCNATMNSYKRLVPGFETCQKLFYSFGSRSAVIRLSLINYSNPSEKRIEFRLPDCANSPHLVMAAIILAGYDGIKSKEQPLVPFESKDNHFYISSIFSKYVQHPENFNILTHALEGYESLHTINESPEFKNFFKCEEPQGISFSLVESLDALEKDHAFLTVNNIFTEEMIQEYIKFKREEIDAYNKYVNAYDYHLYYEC
# [9] = system: Caco-2
# [10] = system: HEK293
# [11] = system: macrophage-like cells differentiated from THP-1
# T1 sequence (P15104 whole entry): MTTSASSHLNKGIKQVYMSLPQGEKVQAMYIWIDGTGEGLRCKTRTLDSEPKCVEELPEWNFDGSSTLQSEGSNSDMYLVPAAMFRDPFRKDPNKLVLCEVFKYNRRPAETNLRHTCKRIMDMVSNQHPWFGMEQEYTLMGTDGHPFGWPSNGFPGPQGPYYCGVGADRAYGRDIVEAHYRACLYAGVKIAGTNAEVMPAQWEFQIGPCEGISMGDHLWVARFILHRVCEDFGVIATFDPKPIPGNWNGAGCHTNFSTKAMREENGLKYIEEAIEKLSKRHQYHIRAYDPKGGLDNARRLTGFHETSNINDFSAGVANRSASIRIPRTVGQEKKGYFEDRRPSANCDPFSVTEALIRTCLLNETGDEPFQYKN
structure (smiles),measurement,setting,value
"C[As](=O)(O)CC[C@H](N)C(=O)O [AST, 2-amino-4-(hydroxymethylarsinoyl)butanoate]",inhibition of malaria transmission,"[1]; 3 µM AST, SMFA",completely inhibited
same,EC50,"[1]; SMFA, day 7 post-infection, read-out: EC50 in blocking the transmission of the sexual-stage P. falciparum to mosquitos (oocysts per mosquito)",0.34 µM
same,Mean oocyst number per midgut,[1]; [AST] 0.1 μM,2.8
same,Infect(%) percentage of infected mosquitoes,[1]; [AST] 0.1 μM,59.6%
same,Mean oocyst number per midgut,[1]; [AST] 0.3 μM,1.4
same,Infect(%) percentage of infected mosquitoes,[1]; [AST] 0.3 μM,36.8%
same,Mean oocyst number per midgut,[1]; [AST] 1 μM,0.25
same,Infect(%) percentage of infected mosquitoes,[1]; [AST] 1 μM,20%
same,Mean oocyst number per midgut,[1]; [AST] 3 μM,0
same,Infect(%) percentage of infected mosquitoes,[1]; [AST] 3 μM,0%
same,Mean oocyst number per midgut,[1]; [AST] 30 μM,0
same,Infect(%) percentage of infected mosquitoes,[1]; [AST] 30 μM,0%
same,CC50,[2],> 250 µM
same,CC50,[3],> 250 µM
same,permeability (total cellular arsenic levels),[4],permeable
same,EC50,[5],13.9 µM
same,insecticidal activity (dead mosquitoes),[6],no dead mosquitoes were observed
same,effect on activity of hGS-II,[7],did not significantly reduce
same,EC50,[8],0.4 µM
same,activity of PfGS-I compared with the control without AST treatment,"[8]; 1 µM AST, PfGS-I 1 µM, 30 min, Figure 2b",less than 40%
same,inhibition of PfGS-I activity,"[8]; AST at 100 µM, Figure 2c",completely inhibited
same,CC50,[9],150 to 200 µM
same,CC50,[10],> 250 µM
same,cytotoxicity relative to As(III) (times less cytotoxic),[10],> 10 times
same,CC50,[11],> 250 µM
